IC50 data for 49 molecules are collected here from US10385070B2, “Chroman-spirocyclic piperidine amides as modulators of ion channels” (VERTEX PHARMACEUTICALS INCORPORATED, priority 2011, dated 2019).

Where only a bound is given, the exact number is not on record here.

human NaV subtype, like NaV 1.7, sequence (Q15858 whole entry): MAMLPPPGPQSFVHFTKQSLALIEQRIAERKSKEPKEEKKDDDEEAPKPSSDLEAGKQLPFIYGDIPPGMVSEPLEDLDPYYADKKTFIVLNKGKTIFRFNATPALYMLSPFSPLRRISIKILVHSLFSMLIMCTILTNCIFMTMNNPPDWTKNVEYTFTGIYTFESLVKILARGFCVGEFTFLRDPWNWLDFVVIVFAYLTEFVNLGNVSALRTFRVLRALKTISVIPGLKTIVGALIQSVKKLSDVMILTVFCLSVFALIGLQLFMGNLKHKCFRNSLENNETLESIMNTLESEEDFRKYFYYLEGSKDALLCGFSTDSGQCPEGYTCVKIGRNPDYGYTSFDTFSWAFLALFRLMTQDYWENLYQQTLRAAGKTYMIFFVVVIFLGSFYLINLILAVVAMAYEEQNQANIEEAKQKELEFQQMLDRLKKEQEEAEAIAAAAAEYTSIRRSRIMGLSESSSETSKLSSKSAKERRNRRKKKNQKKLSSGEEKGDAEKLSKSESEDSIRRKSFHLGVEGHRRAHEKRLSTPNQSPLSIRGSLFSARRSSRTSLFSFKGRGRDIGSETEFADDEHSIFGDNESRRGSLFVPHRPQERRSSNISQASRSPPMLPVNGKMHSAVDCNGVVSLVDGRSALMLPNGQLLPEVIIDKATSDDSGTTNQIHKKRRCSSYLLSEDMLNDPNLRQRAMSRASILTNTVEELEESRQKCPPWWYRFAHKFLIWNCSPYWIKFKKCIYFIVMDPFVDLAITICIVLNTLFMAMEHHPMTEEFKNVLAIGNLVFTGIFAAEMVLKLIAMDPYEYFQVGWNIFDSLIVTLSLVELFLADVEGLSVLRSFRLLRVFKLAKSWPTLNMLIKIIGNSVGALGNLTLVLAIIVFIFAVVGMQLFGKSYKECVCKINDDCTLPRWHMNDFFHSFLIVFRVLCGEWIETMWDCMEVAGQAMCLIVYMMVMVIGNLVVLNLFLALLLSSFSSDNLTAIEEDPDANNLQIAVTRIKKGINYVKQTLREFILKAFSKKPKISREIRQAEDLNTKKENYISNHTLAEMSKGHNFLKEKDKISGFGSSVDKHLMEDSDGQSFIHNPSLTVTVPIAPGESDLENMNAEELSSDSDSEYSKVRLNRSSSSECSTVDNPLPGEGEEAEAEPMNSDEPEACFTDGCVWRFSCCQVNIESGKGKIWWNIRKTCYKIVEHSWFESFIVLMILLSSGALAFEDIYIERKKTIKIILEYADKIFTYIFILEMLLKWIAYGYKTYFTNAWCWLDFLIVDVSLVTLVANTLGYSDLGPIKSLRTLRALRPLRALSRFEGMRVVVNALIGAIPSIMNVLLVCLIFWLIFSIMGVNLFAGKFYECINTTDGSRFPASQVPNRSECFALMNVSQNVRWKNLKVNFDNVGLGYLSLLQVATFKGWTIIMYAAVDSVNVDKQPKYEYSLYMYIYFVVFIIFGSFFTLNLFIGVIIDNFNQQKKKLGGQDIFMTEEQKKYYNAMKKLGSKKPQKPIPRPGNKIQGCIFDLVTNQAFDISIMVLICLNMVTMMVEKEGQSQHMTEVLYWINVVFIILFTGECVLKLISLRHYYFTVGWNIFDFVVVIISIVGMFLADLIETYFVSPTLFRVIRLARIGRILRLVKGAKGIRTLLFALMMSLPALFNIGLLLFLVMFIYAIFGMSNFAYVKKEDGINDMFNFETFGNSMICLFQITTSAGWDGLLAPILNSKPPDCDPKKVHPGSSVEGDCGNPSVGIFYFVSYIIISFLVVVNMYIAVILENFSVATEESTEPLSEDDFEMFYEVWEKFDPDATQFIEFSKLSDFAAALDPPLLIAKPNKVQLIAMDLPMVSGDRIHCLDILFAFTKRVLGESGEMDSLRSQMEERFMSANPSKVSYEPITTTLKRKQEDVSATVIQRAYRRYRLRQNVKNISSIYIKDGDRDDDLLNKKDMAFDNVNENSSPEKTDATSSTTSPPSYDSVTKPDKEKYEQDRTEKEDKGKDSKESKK

This assay addresses human NaV subtype, like NaV 1.7 (Homo sapiens, UniProt Q15858). The assay can be described thus: E-VIPR optical membrane potential assay with electrical stimulation. In kind it is cell-based. The conditions noted are these: active against one or more sodium channels; assay and NaV subtype not specified for Table 3; read-out: IC50 Binned Activity Data. The source says: Assays for Detecting and Measuring NaV Inhibition Properties of Compound E-VIPR Optical Membrane Potential Assay Method with Electrical Stimulation
Sodium channels are voltage-dependent proteins that can be activated by inducing membrane voltage changes by applying electric fields. The electrical stimulation instrument and methods of use are described in Ion Channel Assay Methods PCT/US01/21652, herein incorporated by reference and are referred to as E-VIPR. The instrument comprises a microtiter plate handler, an optical system for exciting the coumarin dye while simultaneously recording the coumarin and oxonol emissions, a waveform generator, a current- or voltage-controlled amplifier, and a device for inserting electrodes in well. Under integrated computer control, this instrument passes user-programmed electrical stimulus protocols to cells within the wells of the microtiter plate.
24 hours before the assay on E-VIPR, HEK cells expressing human NaV subtype, like NaV 1.7, are seeded in 384-well poly-lysine coated plates at 15,000-20,000 cells per well. Other subtypes are performed in an analogous mode in a cell line expressing the NaV of interest. HEK cells are grown in media (exact composition is specific to each cell type and NaV subtype) supplemented with 10% FBS (Fetal Bovine Serum, qualified; GibcoBRL #16140-071) and 1% Pen-Strep (Penicillin-Streptomycin; GibcoBRL #15140-122). Cells are grown in vented cap flasks, in 90% humidity and 10% CO2, to 100% confluence. They are usually split by trypsinization 1:10 or 1:20, depending on scheduling needs, and grown for 2-3 days before the next split.
100 mg/mL Pluronic F-127 (Sigma #P2443), in dry DMSO
Compound Plates: 384-well round bottom plate, e.g. Corning 384-well Polypropylene Round Bottom #3656
Cell Plates: 384-well tissue culture treated plate, e.g. Greiner #781091-1B
Bath1 buffer. Glucose 10 mM (1.8 g/L), Magnesium Chloride (Anhydrous), 1 mM (0.095 g/L), Calcium Chloride, 2 mM (0.222 g/L), HEPES 10 mM (2.38 g/L), Potassium Chloride, 4.5 mM (0.335 g/L), Sodium Chloride 160 mM (9.35 g/L).
Hexyl Dye Solution: Bath1 Buffer+0.5% β-cyclodextrin (make this prior to use, Sigma #C4767), 8 μM CC2-DMPE+2.5 μM DiSBAC6(3). To make the solution Add volume of 10% Pluronic F127 stock equal to volumes of CC2-DMPE+DiSBAC6(3). The order of preparation is first mix Pluronic and CC2-DMPE, then add DiSBAC6(3) while vortexing, then add Bath1+β-Cyclodextrin.
1) Pre-spot compounds (in neat DMSO) into compound plates. Vehicle control (neat DMSO), the positive control (20 mM DMSO stock tetracaine, 125 μM final in assay) and test compounds are added to each well at 160× desired final concentration in neat DMSO. Final compound plate volume will be 80 μL (80-fold intermediate dilution from 1 μL DMSO spot; 160-fold final dilution after transfer to cell plate). Final DMSO concentration for all wells in assay is 0.625%.
2) Prepare Hexyl Dye Solution.
3) Prepare cell plates. On the day of the assay, medium is aspirated and cells are washed three times with 100 μL of Bath1 Solution, maintaining 25 μL residual volume in each well.
4) Dispense 25 μL per well of Hexyl Dye Solution into cell plates. Incubate for 20-35 minutes at room temp or ambient conditions.
5) Dispense 80 μL per well of Bath1 into compound plates. Acid Yellow-17 (1 mM) is added and Potassium Chloride can be altered from 4.5 to 20 mM depending on the NaV subtype and assay sensitivity.
6) Wash cell plates three times with 100 μL per well of Bath1, leaving 25 μL of residual volume. Then transfer 25 uL per well from Compound Plates to Cell Plates. Incubate for 20-35 minutes at room temp/ambient condition
7) Read Plate on E-VIPR. Use the current-controlled amplifier to deliver stimulation wave pulses for typically 9 seconds and a scan rate of 400 Hz. A pre-stimulus recording is performed for 0.5 seconds to obtain the un-stimulated intensities baseline. […]
One may read the IC50 as the point on the concentration scale where inhibition reaches its midpoint. With `CC(C)Oc1ccc(C(=O)N2CCC3(CC2)CC(OC(C)C)c2ccccc2S3(=O)=O)cc1` (stereo not shown) [Compound 99], the IC50 is not above 2000 nM.
`CCOC1Cc2ccccc2OC12CCN(C(=O)c1ccc(OC(C)C)c(OC)c1)CC2` (stereo not shown) [Compound 100]: the IC50 is not above 2000 nM.
With `Cc1nc(C(=O)N2CCC3(CC2)C[C@@H](OC(C)C)c2cc(F)ccc2O3)ccc1S(=O)(=O)C(C)C` [Compound 101], the IC50 was more than 5000 nM.
As for `CC(C)O[C@@H]1CC2(CCN(C(=O)c3ccc(N4CCCC4)cn3)CC2)Oc2ccccc21` [Compound 102], the figure is more than 5000 nM.
The figure for `CC(C)O[C@@H]1CC2(CCN(C(=O)c3ccc(N4CC(S(C)(=O)=O)C4)cn3)CC2)Oc2ccc(F)cc21` [Compound 103] is more than 5000 nM; for `Cc1cc(C(=O)N2CCC3(CC2)CC(OC(C)C)c2nn(C)cc2O3)ccc1OC(C)C` (stereo not shown) [Compound 104] it is not above 2000 nM; for `COc1cc(C(=O)N2CCC3(CC2)CC(OCc2cccnc2)c2ccccc2O3)ccc1OC(C)C` (stereo not shown) [Compound 105] it is not above 2000 nM.
The figure for `COc1cc(C(=O)N2CCC3(CC2)C[C@H](OC(C)C)c2ccccc2O3)ccc1OCCCO` [Compound 106] is not above 2000 nM.
For the molecule `Cc1nc(C(=O)N2CCC3(CC2)C[C@H](OC(C)C)c2ccccc2O3)ccc1OC(C)C` [Compound 107], the IC50 was not above 2000 nM.
The figure for `CC(C)OCC1CC2(CCN(C(=O)c3ccc(OC(C)C)c(CO)c3)CC2)Oc2ccccc21` (stereo not shown) [Compound 108] is not above 2000 nM; for `COc1cc(C(=O)N2CCC3(CC2)CC(OC)c2ccccc2S3(=O)=O)ccc1OC(C)C` (stereo not shown) [Compound 109] it is more than 5000 nM.
Take `CC(C)O[C@@H]1CC2(CCN(C(=O)c3ccc(S(=O)(=O)C(F)F)cc3)CC2)Oc2ccc(F)cc21` [Compound 110]: the IC50 is not above 2000 nM.
The figure for `CCc1ccc(C(=O)N2CCC3(CC2)C[C@@H](OC(C)C)c2cc(F)ccc2O3)nc1` [Compound 111] is more than 5000 nM; for `CC(C)Oc1ccc(C(=O)N2CCC3(CC2)C[C@@H](OC(C)C)c2cc(F)ccc2O3)cc1F` [Compound 112] it is not above 2000 nM; for `COc1ccccc1C(=O)N1CCC2(CC1)CC(OC)c1ccccc1O2` (stereo not shown) [Compound 113] it is not above 2000 nM.
With `COc1cc(C(=O)N2CCC3(CC2)C[C@@H](OC(C)C)c2ccccc2O3)ccc1OC(C)C` [Compound 114], the half-maximal inhibitory concentration (IC50) is not above 2000 nM.
As for `CC(C)O[C@H]1CC2(CCN(C(=O)c3ccc(C(C)(C)O)cc3)CC2)Oc2ccccc21` [Compound 115], the figure is 2000 to 5000 nM; as for `COc1cc(C(=O)N2CCC3(CC2)C[C@@H](OC(C)C)c2ccccc2O3)ccc1OCCCO` [Compound 116], 2000 to 5000 nM; as for `COc1cc(C(=O)N2CCC3(CC2)C[C@@H](OC(C)C)c2cc(F)ccc2O3)ccc1OCCO` [Compound 117], not above 2000 nM.
As for `CC(C)OC1CC2(CCN(C(=O)c3ccc(C(C)(C)O)c(F)c3)CC2)Oc2cc(F)ccc21` (stereo not shown) [Compound 118], the figure is not above 2000 nM; as for `CC(C)OC1CC2(CCN(C(=O)c3ccc(S(=O)(=O)C(C)C)cc3)CC2)Oc2ccccc21` (stereo not shown) [Compound 119], not above 2000 nM; as for `COc1cc(C(=O)N2CCC3(CC2)C[C@@H](OC(C)C)c2cc(F)ccc2O3)ccc1C(C)(C)CO` [Compound 120], not above 2000 nM.
`CCO[C@@H]1CC2(CCN(C(=O)c3ccc(S(=O)(=O)C(F)F)cc3)CC2)Oc2ccc(F)cc21` [Compound 121]: the IC50 is more than 5000 nM.
Consider `Cc1cc(C(=O)N2CCC3(CC2)C[C@@H](O)c2cc(F)ccc2O3)ccc1OC(C)C` [Compound 122], for which the IC50 was not above 2000 nM.
For the molecule `CC(C)O[C@H]1CC2(CCN(C(=O)c3ccc4c(cnn4C)c3)CC2)Oc2ccccc21` [Compound 123], the IC50 lay within 2000 to 5000 nM.
As for `CC(C)Oc1ccc(C(=O)N2CCC3(CC2)C[C@@H](OC(C)C)c2ccccc2O3)cn1` [Compound 124], the figure is more than 5000 nM; as for `CCOc1ccc(C(=O)N2CCC3(CC2)C[C@@H](OC(C)C)c2ccccc2O3)cc1F` [Compound 125], not above 2000 nM; as for `CCc1ccc(C(=O)N2CCC3(CC2)C[C@@H](OC(C)C)c2cc(F)ccc2O3)cc1OC` [Compound 126], not above 2000 nM.
As for `COc1cc(C(=O)N2CCC3(CC2)CC(OC2CC2)c2ccccc2O3)ccc1OC(C)C` (stereo not shown) [Compound 127], the figure is not above 2000 nM; as for `COc1cc(C(=O)N2CCC3(CC2)CC(OC(C)(C)C)c2ccccc2O3)ccc1OC(C)C` (stereo not shown) [Compound 128], not above 2000 nM.
As for `CCOc1ccc(C(=O)N2CCC3(CC2)C[C@@H](OC(C)C)c2cc(F)ccc2O3)nc1` [Compound 129], the figure is 2000 to 5000 nM; as for `CC(C)O[C@@H]1CC2(CCN(C(=O)c3ccc(C(C)(C)O)c(F)c3)CC2)Oc2cc(F)ccc21` [Compound 130], 2000 to 5000 nM.
On to `CC(C)O[C@@H]1CC2(CCN(C(=O)c3ccccc3OC(F)(F)F)CC2)Oc2ccc(F)cc21` [Compound 131], for which the IC50 is not above 2000 nM.
As for `CC1CCCN(c2ccc(C(=O)N3CCC4(CC3)C[C@@H](OC(C)C)c3cc(F)ccc3O4)nc2)C1` (stereo partly shown) [Compound 132], the figure is not above 2000 nM; as for `COc1ccc(C(=O)N2CCC3(CC2)C[C@H](OC(C)C)c2ccccc2O3)cc1C` [Compound 133], not above 2000 nM.
As for `Cc1cc(C(=O)N2CCC3(CC2)C[C@@H](O)c2cc(F)ccc2O3)ccc1C(C)(C)O` [Compound 134], the figure is not above 2000 nM; as for `COCOC1Cc2ccccc2OC12CCN(C(=O)c1ccc(OC(C)C)c(OC)c1)CC2` (stereo not shown) [Compound 135], not above 2000 nM; as for `COc1cc(C(=O)N2CCC3(CC2)C[C@@H](OC(C)C)c2ccccc2O3)ccc1O` [Compound 136], not above 2000 nM.
With `CC(C)O[C@@H]1CC2(CCN(C(=O)c3ccc4c(cnn4C)c3)CC2)Oc2ccccc21` [Compound 137], the IC50 was not above 2000 nM.
The figure for `Cc1cc(C(=O)N2CCC3(CC2)CC(O)c2c(F)cccc2O3)ccc1OC(C)C` (stereo not shown) [Compound 138] is not above 2000 nM; for `CC(C)Oc1ccc(C(=O)N2CCC3(CC2)C[C@@H](OC(C)C)c2cc(F)ccc2O3)nc1` [Compound 139] it is not above 2000 nM.
As for `CC(C)Oc1ccc(C(=O)N2CCC3(CC2)C[C@@H](OC(C)C)c2ccccc2O3)cc1F` [Compound 140], the IC50 is not above 2000 nM.
The figure for `Cc1cc(C(=O)N2CCC3(CC2)CC(OC(C)C)c2ccccc2O3)ccc1OC(C)C` (stereo not shown) [Compound 141] is not above 2000 nM.
Take `COc1cc(C(=O)N2CCC3(CC2)CC(OC)c2ccccc2O3)ccc1OC(C)C` (stereo not shown) [Compound 142]: the IC50 is not above 2000 nM.
With `COc1cc(C(=O)N2CCC3(CC2)CC(Cn2cccn2)c2ccccc2O3)ccc1OC(C)C` (stereo not shown) [Compound 143], the IC50 was not above 2000 nM.
For `COc1cc(O)ccc1C(=O)N1CCC2(CC1)C[C@H](OC(C)C)c1ccccc1O2` [Compound 144], the IC50 is not above 2000 nM.
The figure for `COc1cc(C(=O)N2CCC3(CC2)CC(Oc2cccnc2)c2ccccc2O3)ccc1OC(C)C` (stereo not shown) [Compound 145] is not above 2000 nM; for `COc1cc(C(=O)N2CCC3(CC2)C[C@@H](OC(C)C)c2cc(F)ccc2O3)ccc1OC(C)C` [Compound 146] it is not above 2000 nM.
As for `CC(C)CS(=O)(=O)c1ccc(C(=O)N2CCC3(CC2)C[C@@H](OC(C)C)c2cc(F)ccc2O3)cc1` [Compound 147], the figure is not above 2000 nM.
